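Exposure lasted 48 hours, with cells grown in 96-well plates and compounds tested at five concentrations. GI50 = concentration required for 50% inhibition of growth.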 The source made the active and inactive calls. No stated cut-off is given here; in the data, active = GI50 up to about 1.1 µM and inactive = higher.
Tests used:
Test in all cases: DTP human tumour cell line panel, 48 h
[1] = tested on: NCI-H522
[2] = tested on: SR
[3] = tested on: SF-539
[4] = tested on: NCI-H460
[5] = tested on: SK-MEL-5
[6] = tested on: OVCAR-4
[7] = tested on: OVCAR-5
[8] = tested on: PC-3
[9] = tested on: Malme-3M
[10] = tested on: HT-29
[11] = tested on: CCRF-CEM
[12] = tested on: A549
[13] = tested on: UACC-62
[14] = tested on: HL-60
[15] = tested on: RXF 393
[16] = tested on: A498
[17] = tested on: SK-OV-3
[18] = tested on: RPMI-8226

Row | Compound | GI50 [1] | GI50 [2] | GI50 [3] | GI50 [4] | GI50 [5] | GI50 [6] | GI50 [7] | GI50 [8] | GI50 [9] | GI50 [10] | GI50 [11] | GI50 [12] | GI50 [13] | GI50 [14] | GI50 [15] | GI50 [16] | GI50 [17] | GI50 [18]
1 | Cc1ccc([C@@H]2[C@@H](C(=O)c3ccccn3)[C@H](c3ccc(C)cc3)C[C@](O)(c3ccccn3)[C@H]2C(=O)c2ccccn2)cc1 | 32.8 µM (inactive) | 0.495 µM (active) | 2.08 µM (inactive) | 2.27 µM (inactive) | 3.71 µM (inactive) | 4.98 µM (inactive) | 8.93 µM (inactive) | 6.56 µM (inactive) | 8.79 µM (inactive) | 2.97 µM (inactive) | 0.851 µM (active) | 2.77 µM (inactive) | 3.16 µM (inactive) | 2.52 µM (inactive) | 3.15 µM (inactive) |  |  | 
2 | C=CCCC(=O)C(=[N+]=[N-])C(=O)CCC(=O)c1ccccc1 |  | > 10 µM (inactive) | > 10 µM (inactive) | > 10 µM (inactive) | > 10 µM (inactive) |  | > 10 µM (inactive) | > 10 µM (inactive) | > 10 µM (inactive) | > 10 µM (inactive) |  | > 10 µM (inactive) | > 10 µM (inactive) |  | > 10 µM (inactive) | > 10 µM (inactive) | > 10 µM (inactive) | > 10 µM (inactive)
3 | Clc1sc(Cl)c2c1[C@@H](Cl)C[C@@H]2Br | 30.8 µM (inactive) | 18.8 µM (inactive) |  | 71.1 µM (inactive) | > 100 µM (inactive) | > 100 µM (inactive) | > 100 µM (inactive) | > 100 µM (inactive) | 22.8 µM (inactive) | > 100 µM (inactive) | 33.3 µM (inactive) | 83.8 µM (inactive) | 68.2 µM (inactive) |  | 78.3 µM (inactive) |  | > 100 µM (inactive) | 
4 | Nc1ccc(-c2nnc(-c3c(Cl)c(Cl)c(Cl)c(Cl)c3-c3nc4cc(C(=O)c5ccccc5)ccc4[nH]3)o2)cc1 | 13.5 µM (inactive) | 5.16 µM (inactive) | 14.2 µM (inactive) |  | 11.1 µM (inactive) | 24.5 µM (inactive) | 37.9 µM (inactive) | 16.6 µM (inactive) | 22.8 µM (inactive) | 20.5 µM (inactive) | 14.8 µM (inactive) | 28.1 µM (inactive) |  |  | 10.9 µM (inactive) | 18.5 µM (inactive) | 26.1 µM (inactive) | 14.8 µM (inactive)
5 | Cc1ccc(S(=O)(=O)NC(=O)NC(C(=O)O)C(C)O)cc1 (stereo not drawn) | > 100 µM (inactive) | > 100 µM (inactive) | > 100 µM (inactive) | > 100 µM (inactive) | > 100 µM (inactive) | > 100 µM (inactive) | > 100 µM (inactive) | > 100 µM (inactive) | > 100 µM (inactive) | > 100 µM (inactive) | > 100 µM (inactive) | > 100 µM (inactive) | > 100 µM (inactive) | > 100 µM (inactive) | > 100 µM (inactive) |  | > 100 µM (inactive) | > 100 µM (inactive)
6 | COc1cc(C=O)cc(/C=N/c2ccccn2)c1O |  | 2.18 µM (inactive) | 3.01 µM (inactive) | 19.5 µM (inactive) | 2.39 µM (inactive) | > 100 µM (inactive) | 15.8 µM (inactive) | 3.64 µM (inactive) | 2.47 µM (inactive) | 11.5 µM (inactive) | 4.67 µM (inactive) | 32 µM (inactive) | 30 µM (inactive) | 33.4 µM (inactive) | 1.56 µM (inactive) | 9.64 µM (inactive) | 4.98 µM (inactive) | 4.85 µM (inactive)
7 | CCOC(=O)/C=C(\C(=O)OCC)n1ccc(N)nc1=O | 18.2 µM (inactive) | 87.7 µM (inactive) | > 100 µM (inactive) | > 100 µM (inactive) | > 100 µM (inactive) | 72.9 µM (inactive) | 33 µM (inactive) | > 100 µM (inactive) | 45.7 µM (inactive) | 52.2 µM (inactive) | 22.4 µM (inactive) | > 100 µM (inactive) | > 100 µM (inactive) | 26.6 µM (inactive) |  |  | > 100 µM (inactive) | > 100 µM (inactive)
8 | N#CCCN(CCCN(CCCN(C(=O)Nc1ccccc1)c1ccccc1)C(=O)Nc1ccccc1)C(=O)Nc1ccccc1 |  | 0.998 µM (active) | > 8.75 µM (inactive) | > 8.75 µM (inactive) | > 8.75 µM (inactive) | > 100 µM (inactive) | > 8.75 µM (inactive) | > 8.75 µM (inactive) | > 8.75 µM (inactive) | > 8.75 µM (inactive) | 6.14 µM (inactive) | > 8.75 µM (inactive) | > 8.75 µM (inactive) | > 8.75 µM (inactive) | > 8.75 µM (inactive) | > 8.75 µM (inactive) | > 8.75 µM (inactive) | 3.44 µM (inactive)
9 | CC(=O)c1cc(CC2Cc3cc4c(cc3C2=O)CCC4)cc2c1CCC2 (stereo not drawn) | 36.9 µM (inactive) | 29.9 µM (inactive) | 70.5 µM (inactive) | 36 µM (inactive) | 14 µM (inactive) | 54.8 µM (inactive) | > 100 µM (inactive) | 10.1 µM (inactive) | 33 µM (inactive) | 48.2 µM (inactive) | 24 µM (inactive) | 29.8 µM (inactive) | > 100 µM (inactive) | 8.65 µM (inactive) |  | 84.7 µM (inactive) | 62.2 µM (inactive) | 10.7 µM (inactive)
10 | Nc1nc2c(=O)c3ccccc3sc2s1 |  | 48.3 µM (inactive) | 17.3 µM (inactive) | 35.1 µM (inactive) | 35.5 µM (inactive) |  | 80.7 µM (inactive) | 60 µM (inactive) |  | 54.8 µM (inactive) | 78.3 µM (inactive) | 33.7 µM (inactive) | 26.6 µM (inactive) | 28.9 µM (inactive) | 39.8 µM (inactive) | 25.4 µM (inactive) |  | 33.6 µM (inactive)
11 | Cn1cc[n+](-c2cc(=O)n(C)c(=O)[n-]2)c1 |  | 27.9 µM (inactive) | > 100 µM (inactive) | > 100 µM (inactive) | 97.7 µM (inactive) | 94.4 µM (inactive) | > 100 µM (inactive) | > 100 µM (inactive) | > 100 µM (inactive) | > 100 µM (inactive) | > 100 µM (inactive) | > 100 µM (inactive) | > 100 µM (inactive) | > 100 µM (inactive) | > 100 µM (inactive) | > 100 µM (inactive) | > 100 µM (inactive) | 96.8 µM (inactive)
12 | O=C1C([N-]S(=O)(=O)c2ccccc2)=C([n+]2ccc(Cc3ccccc3)cc2)C(=O)c2ccccc21 | 0.614 µM (active) | 2.59 µM (inactive) | 1.79 µM (inactive) | 0.535 µM (active) | 0.145 µM (active) | 1.56 µM (inactive) | 2.03 µM (inactive) | 2.21 µM (inactive) | 0.376 µM (active) | 0.263 µM (active) | 29.7 µM (inactive) | 1.92 µM (inactive) | 1.15 µM (inactive) | 1.38 µM (inactive) | 2.31 µM (inactive) |  | 6.12 µM (inactive) | 1.65 µM (inactive)
13 | CNC(=O)c1ccc(C(=O)NCCCCCN(O)C(=O)CCC(=O)NCCCCCN(O)C(=O)CCC(=O)NCCCCCN(O)C(C)=O)c(O)c1O | 60.1 µM (inactive) |  | 29 µM (inactive) | 36.1 µM (inactive) | 33.7 µM (inactive) | 1.07 µM (active) | > 100 µM (inactive) | 86.7 µM (inactive) | 90.8 µM (inactive) | 38.9 µM (inactive) | 5 µM (inactive) | 54.7 µM (inactive) | 36.1 µM (inactive) | 23.8 µM (inactive) | 32.3 µM (inactive) | > 100 µM (inactive) | 45.4 µM (inactive) | 38.5 µM (inactive)
14 | COc1ccc(/N=N/c2c(C)c(C#N)c(=S)n(C3OC(CO)C(O)C(O)C3O)c2C)cc1 (stereo not drawn) |  | 23.4 µM (inactive) | 48.3 µM (inactive) | 35 µM (inactive) | 14.5 µM (inactive) | 57.4 µM (inactive) | > 100 µM (inactive) | 31.5 µM (inactive) |  | 37.9 µM (inactive) | 23.7 µM (inactive) | 52.1 µM (inactive) | 30.4 µM (inactive) | 38.3 µM (inactive) | > 100 µM (inactive) |  | > 100 µM (inactive) | 39.2 µM (inactive)
15 | C#C[C@]1(O)CC[C@H]2[C@@H]3CCC4=C/C(=N/NC(=O)c5cccc6c(=O)c7ccccc7[nH]c56)CCC4[C@H]3CC[C@@]21C (stereo partly drawn) | 15.8 µM (inactive) | 28.4 µM (inactive) | 34.7 µM (inactive) |  | 24.4 µM (inactive) | 45.8 µM (inactive) | > 100 µM (inactive) | 34.7 µM (inactive) | 18 µM (inactive) | 30.3 µM (inactive) | 40.3 µM (inactive) | 60.3 µM (inactive) | 30.8 µM (inactive) | 26.4 µM (inactive) |  |  | > 100 µM (inactive) | 28.8 µM (inactive)
16 | CC12OC(=O)[C@@]3(O)CCC4C(C[C@H]5O[C@]56CC=CC(=O)[C@]46C)C45OC[C@H]6C(=O)O[C@@H]1C[C@@]6(C)[C@H](C4=O)C23O5 (stereo partly drawn) | 0.269 µM (active) | 0.392 µM (active) | 0.252 µM (active) | 1.94 µM (inactive) | 1.53 µM (inactive) | 2.01 µM (inactive) | 3.34 µM (inactive) | 3.13 µM (inactive) | 1.36 µM (inactive) | 2.11 µM (inactive) | 0.233 µM (active) | 3.83 µM (inactive) | 0.971 µM (active) | 0.121 µM (active) | 0.39 µM (active) |  | 5.53 µM (inactive) | 0.308 µM (active)
17 | CCCC(=O)C1=C(O)C(Cc2c(O)c(C)c(O)c(C(=O)CCC)c2O)=C(O)C(C)(C)C1=O |  | 14.7 µM (inactive) |  | 14.3 µM (inactive) | > 50 µM (inactive) | 43.6 µM (inactive) | 11.9 µM (inactive) | 19.1 µM (inactive) |  | 20.4 µM (inactive) | 0.421 µM (active) | 25.2 µM (inactive) | > 50 µM (inactive) |  | 17 µM (inactive) | 46.8 µM (inactive) | 22.6 µM (inactive) | 17 µM (inactive)

From ChEMBL document CHEMBL1201862, “PubChem BioAssay data set” (2004)
